In article PMC6158578, “Optimization and Lead Selection of Benzothiazole Amide Analogs Toward a Novel Antimycobacterial Agent” (Frontiers in Microbiology, 2018):
Converted amounts (≈) assume the structure as drawn.

How the values were obtained:
[1] = test system: M. chelonae (n = 11) clinical isolates; experiment: MIC against rapid-growing NTM clinical isolates; format: cell-based; conditions: M. chelonae (n = 11)
Mtb H37Rv = format: cell-based, M. tuberculosis
M. abscessus 79 = experiment: MIC in MHB versus 7H9+OADC; format: cell-based
Solubility in corn oil = conditions: oil or lipid
S. aureus ATCC 29213 = experiment: MIC, spectrum of activity; format: cell-based; conditions: Staphylococcus aureus, ATCC29213; S. aureus ATCC 29213; read-out: MIC
Mtb = experiment: microbe, parasite or virus in culture; format: cell-based, M. tuberculosis; conditions: Mycobacterium tuberculosis
M. abscessus ATCC 19977 = experiment: MIC, broth microdilution with resazurin (MHB, 3 days); format: cell-based; conditions: Mycobacteroides abscessus, ATCC19977; M. abscessus ATCC 19977; read-out: MIC
M. fortuitum 41 = experiment: as above; format: cell-based; conditions: Mycolicibacterium fortuitum; M. fortuitum 41; read-out: MIC
[2] = test system: M. tuberculosis H37Rv mc^2 6206; experiment: microbe, parasite or virus in culture; format: cell-based; conditions: Mycobacterium tuberculosis, 168 h
Other NTM (n = 12) = experiment: MIC against rapid-growing NTM clinical isolates; format: cell-based; conditions: Other NTM (n = 12)
[3] = test system: M. fortuitum (n = 11) clinical isolates; experiment: MIC against rapid-growing NTM clinical isolates; format: cell-based; conditions: M. fortuitum (n = 11)
E. faecalis ATCC 29212 = experiment: MIC, spectrum of activity; format: cell-based; conditions: Enterococcus faecalis, ATCC29212; E. faecalis ATCC 29212; read-out: MIC
physchem = format: physicochemical; conditions: pH 7.4, aqueous buffer, thermodynamic from solid
Protocol: (§1) ADMET assays were performed through NIAID Preclinical Services and Eurofins. Potential for cytotoxicity was monitored in HepG2 cells after 72 h growth in the presence of test compounds, either prepared as 10-point 3-fold serial dilutions or at a fixed 10 μM concentration. Cell viability was measured using the CellTiter-Glo® Luminescent Cell Viability Assay (Promega) or via fluorescent image analysis. Cytotoxicity was expressed as IC50 or as percent reduction of viable cells relative to a reference compound. Metabolic stability of compounds was evaluated via incubation with human liver microsomes at 37°C and quantitative analysis of parent compound by LC-MS/MS in samples removed at 0, 5, 15, 30, and 45 min (Obach, [1999]). For cytochrome P450 (CYP) inhibition assays, compounds were prepared as a 7-point dilution series and incubated with human liver microsomes in buffer containing 2 mM NADPH and probe substrate. […] Thermodynamic solubility of compounds in aqueous media was determined by incubation in 50 mM potassium phosphate buffer (pH 7.4) for 24 h, followed by HPLC-UV detection of compound in the filtrate (Analiza, Cleveland, OH, United States).

M. avium 101 = experiment: MIC, Middlebrook medium (7H9 + OADC, 7 days); format: cell-based; conditions: Mycobacterium avium, 168 h; M. avium 101; read-out: MIC
Intracellular Mtb = experiment: microbe, parasite or virus in culture; format: cell-based, M. tuberculosis; conditions: Mycobacterium tuberculosis
M. abscessus 1 = experiment: MIC in MHB versus 7H9+OADC; format: cell-based
M. abscessus 21 = experiment: MIC in MHB versus 7H9+OADC; format: cell-based
in vitro = in vitro ADME; conditions: human, microsomes
Protocol: as §1

M. intracellulare 1956 = experiment: MIC, Middlebrook medium (7H9 + OADC, 7 days); format: cell-based; conditions: Mycobacterium intracellulare, 168 h; M. intracellulare 1956; read-out: MIC
equine erythrocytes = experiment: Hemolysis assay; conditions: up to 128 μg/mL, 10 min, room temperature
[4] = test system: M. abscessus (n = 20) clinical isolates; experiment: MIC against rapid-growing NTM clinical isolates; format: cell-based; conditions: M. abscessus (n = 20)
[5] = test system: M. peregrinum ATCC 700686; experiment: MIC, broth microdilution with resazurin (MHB, 3 days); format: cell-based; conditions: Mycolicibacterium peregrinum, ATCC700686; M. peregrinum ATCC 700686; read-out: MIC
S. pyogenes ATCC 19615 = experiment: MIC, spectrum of activity; format: cell-based; conditions: Streptococcus pyogenes, ATCC19615; S. pyogenes ATCC 19615; read-out: MIC
CYP3A = experiment: CYP inhibition in human liver microsomes; format: in vitro ADME
Protocol: as §1

CYP2B6 = molecular target: T1, CYP2B6 (Homo sapiens, UniProt P20813); experiment: CYP inhibition in human liver microsomes; format: in vitro ADME
T1 construct: incubated with human liver microsomes in buffer containing 2 mM NADPH and probe substrate; from tissue; host or cells: human liver microsomes
T1 sequence (P20813 1-491): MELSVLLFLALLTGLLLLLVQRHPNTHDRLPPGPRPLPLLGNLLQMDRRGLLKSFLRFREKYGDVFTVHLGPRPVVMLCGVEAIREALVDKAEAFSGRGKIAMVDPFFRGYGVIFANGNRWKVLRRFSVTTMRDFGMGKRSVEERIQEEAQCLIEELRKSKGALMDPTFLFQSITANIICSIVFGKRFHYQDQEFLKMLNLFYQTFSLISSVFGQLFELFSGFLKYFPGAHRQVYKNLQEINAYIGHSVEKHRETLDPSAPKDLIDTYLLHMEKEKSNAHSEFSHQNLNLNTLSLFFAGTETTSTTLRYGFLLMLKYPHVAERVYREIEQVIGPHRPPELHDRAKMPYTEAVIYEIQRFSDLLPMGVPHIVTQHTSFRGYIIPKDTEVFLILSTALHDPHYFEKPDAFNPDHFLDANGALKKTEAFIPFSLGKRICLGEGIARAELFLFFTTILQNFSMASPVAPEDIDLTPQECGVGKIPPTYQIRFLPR
Protocol: as §1

For `CC12CC3CC(C)(C1)CC(C(=O)Nc1nc4ccc(OC(F)(F)F)cc4s1)(C3)C2` [CRS400226], the MIC range [1] was 0.5–0.5 μg/mL, the MIC90 ([1]; Mycobacteroides chelonae, read-out: MIC90) was 0.5 µg/mL (≈ 1.18 µM) and the “reduction in Mtb in time-kill assay” value (Mtb H37Rv) was 3 Log10 CFU. The “time-kill kinetics, result in words” value (Mtb H37Rv) was “bactericidal activity”, the MIC (M. abscessus 79; M. abscessus 79, 7H9 + OADC (5 mg/mL albumin)) was 2 µg/mL and the MIC (M. abscessus 79; M. abscessus 79, MHB) was 0.25 µg/mL (≈ 0.589 µM). It also gave a solubility (Solubility in corn oil) of no more than 250 mg/mL, an MIC (S. aureus ATCC 29213) greater than 64 µg/mL and an MBC (Mtb) of 10.6 µg/mL (≈ 25 µM). The MIC (M. abscessus ATCC 19977) was 0.25 µg/mL (≈ 0.589 µM), the MIC (M. fortuitum 41) was 0.12 µg/mL (≈ 0.283 µM) and the MIC [2] was 0.5 µg/mL (≈ 1.18 µM). For the same molecule, the MIC range (Other NTM (n = 12)) was 0.12 to 1 µg/mL, the MIC90 (Other NTM (n = 12); read-out: MIC90) was 0.5 µg/mL (≈ 1.18 µM) and the MIC range [3] was 0.12 to 0.5 µg/mL. The MIC90 ([3]; Mycolicibacterium fortuitum, read-out: MIC90) was 0.5 µg/mL (≈ 1.18 µM), the MIC (E. faecalis ATCC 29212) was greater than 64 µg/mL and the solubility at 24 h (physchem) was less than 3 µM. The MIC (M. avium 101) was 2 µg/mL, the IC90 (Intracellular Mtb) was 0.8 µg/mL (≈ 1.88 µM) and the MIC (M. abscessus 1; M. abscessus 1, 7H9 + OADC (5 mg/mL albumin)) was 8 µg/mL. The MIC (M. abscessus 1; M. abscessus 1, MHB) was 0.25 µg/mL (≈ 0.589 µM), the MIC (M. abscessus 21; M. abscessus 21, 7H9 + OADC (5 mg/mL albumin)) was 8 µg/mL and the MIC (M. abscessus 21; M. abscessus 21, MHB) was 0.25 µg/mL (≈ 0.589 µM). For the same molecule, the microsomal CLint (in vitro) was 124 µL/min/mg, the MIC (M. intracellulare 1956) was 1 µg/mL and the Hemolysis (equine erythrocytes) was 128 µg/mL. It also gave an MIC range [4] of 0.25 to 2 µg/mL, an MIC90 ([4]; Mycobacteroides abscessus, read-out: MIC90) of 0.5 µg/mL (≈ 1.18 µM) and an MIC [5] of no more than 0.06 µg/mL. The MIC (S. pyogenes ATCC 19615) was greater than 64 µg/mL, the lung histology (Mabs 21; after 4 weeks of treatment) was “only very mild areas of airway-centric inflammation” and the “reduction of lung CFU compared to the vehicle control” value (Mabs 21; intratracheal 25 mg/kg once daily, 5 days per week, 4 weeks, 5% corn oil/saline emulsion) was 0.64 Log10 CFU. The tolerability (Mabs 21; up to 4 weeks of treatment, intratracheal 25 mg/kg) was “well tolerated”, the inhibition at 10 µM (CYP3A) was less than 50% and the inhibition at 10 µM (CYP2B6) was less than 50%.
